Reference: patent US6599920B2, “Naphthalene compounds, intermediates, formulations, and methods” (Eli Lilly and Company, priority 1996, dated 2003)
Marks after values point to notes of the source that are not given here.

Columns and labels:
[1] = tested on: ovariectomized rats; assay: Ovariectomized rat model of postmenopausal hyperlipidemia (serum cholesterol, uterine weight, uterine eosinophil peroxidase); type: in vivo
Protocol: Experimental models of postmenopausal hyperlipidemia are known in the art. […] to this invention is the ovariectomized rat model which is detailed in U.S. Pat. No. 5,464,845. Data presented in Table 1 show comparative results among ovariectomized rats, rats treated with 17-α-ethynyl estradiol (EE2), and rats treated with certain compounds of this invention. […] This uterine response to estrogen is well recognized in the art. As expressed in the data below, estrogenicity also was assessed by evaluating the response of eosinophil infiltration into the uterus. […] The data presented in Table 1 reflect the response per treatment group. In accordance with the above procedures, compounds of the present invention and ethynyl estradiol (EE2) in 20% hydroxypropyl β-cyclodextrin are orally administered to test animals.

[2] = tested on: MCF-7 breast adenocarcinoma cells; assay: MCF-7 Proliferation Assay; type: cell-based; conditions: Homo sapiens, MCF7; MCF-7 cells, 48 hours with drug; read-out: IC50, inhibition of tumor cell growth (tritiated thymidine uptake)
Protocol: MCF-7 breast adenocarcinoma cells (ATCC HTB 22) were maintained in MEM (minimal essential medium, phenol red-free, Sigma, St. Louis, Mo.) supplimented with 10% fetal bovine serum (FBS) (V/V), L-glutamine (2 mM), sodium pyruvate (1 mM), HEPES {(N-[2-hydroxyethyl]piperazine-N′-[2-ethanesulfonic acid]10 mm}, non-essential amino acids and bovine insulin (1 ug/mL) (maintenance medium). Ten days prior to assay, MCF-7 cells were switched to maintenance medium supplemented with 10% dextran coated charcoal stripped fetal bovine serum (DCC-FBS) assay medium) in place of 10% FBS to deplete internal stores of steroids. MCF-7 cells were removed from maintenance flasks using cell dissociation medium (Ca++/Mg++ free HBSS (phenol red-free) supplemented with 10 mM HEPES and 2 mM EDTA). Cells were washed twice with assay medium and adjusted to 80,000 cells/mL. Approximately […] (8,000 cells) were added to flat-bottom microculture wells (Costar 3596) and incubated at 37° C. in a 5% CO2 humidified incubator for 48 hours to allow for cell adherence and equilibration after transfer. Serial dilutions of drugs or DMSO as a diluent control were prepared in assay medium and […] to triplicate microcultures […]. […] Samples were counted by liquid scintillation using a Wallac BetaPlace β counter. […]

[3] = 0.1 mg/kg PO, in 20% hydroxypropyl β-cyclodextrin

Row | Uterine EPO (Vmax), eosinophil peroxidase ([1]; 0.1 mg/kg PO) | Uterine Wt. (% Inc.), uterine weight % increase versus the ovariectomized controls [1, 3] | IC50 [2] [nM] | Uterine EPO (Vmax), eosinophil peroxidase ([1]; 1 mg/kg PO) | Uterine Wt. (% Inc.), uterine weight % increase versus the ovariectomized controls ([1]; 1 mg/kg PO) | Uterine EPO (Vmax), eosinophil peroxidase ([1]; 10 mg/kg PO) | Uterine Wt. (% Inc.), uterine weight % increase versus the ovariectomized controls ([1]; 10 mg/kg PO) | SMILES | Serum cholesterol (% Dec.), decrease versus ovariectomized controls ([1]; 0.1 mg/kg PO) | Effect on serum cholesterol ([1]; oral, compared to ovariectomized animals) | Effect on uterine weight ([1]; oral, compared to ovariectomized animals or EE2) | Eosinophil infiltration into the uterus ([1]; oral, stromal layer of uteri) | Serum cholesterol (% Dec.), decrease versus ovariectomized controls ([1]; 1 mg/kg PO) | Serum cholesterol (% Dec.), decrease versus ovariectomized controls ([1]; 10 mg/kg PO)
1 | 133.8* | 128.0* % |  |  |  |  |  | C#C[C@]1(O)CC[C@H]2[C@@H]3CCc4cc(O)ccc4[C@H]3CC[C@@]21C [EE2, 17-α-Ethynyl-estradiol, reference compound] | 87.5* % | caused a decrease in serum cholesterol | substantially greater than the uterine weight of the ovariectomized animals | substantial and expected increase in eosinophil infiltration |  | 
2 | 7.5 | 30.9* % | 0.1 | 5.4 | 31.6* % | 6.0 | 37.2* % | COc1cccc(-c2ccc3cc(OC)ccc3c2Cc2ccc(OCCN3CCCCC3)cc2)c1.Cl [Ex. 1, [2-(3-Methoxyphenyl)-6-methoxynaphthalen-1-yl][4-[2-(1-piperidinyl)ethoxy]phenyl]methane Hydrochloride] | 68.4* % |  |  |  | 74.1* % | 65.0* %
3 | 4.8 | 37.6* % |  | 4.8 | 44.7* % | 4.8 | 28.1* % | Cl.Oc1cccc(-c2ccc3cc(O)ccc3c2Cc2ccc(OCCN3CCCCC3)cc2)c1 [Ex. 2, [2-(3-Hydroxyphenyl)-6-hydroxynaphthalen-1-yl][4-[2-(1-piperidinyl)ethoxy]phenyl]methane Hydrochloride] | 6.6% |  |  |  | 28.6% | 46.6* %
